Where “and” joins values, the source holds several entries; their conditions need not be identical. Equal values may be shown once. Read-outs that look alike come from different tables or passages of the source.
Experiments:
[1] = Loading kinetics of silicone micro-O-rings from methanol PAH solution (GC-MS/MS); format: physicochemical; details: for K Value: loading rate constant, one-phase association (h^-1); for K Value / Plateau Value / Y0: 10 µg/mL PAH mix in methanol; for Plateau Value: one-phase association fit of nominal Csilicone (µg/mL per Eq 1); for Y0: one-phase association fit of nominal Csilicone, 0-24 h; for Half-time Value / Span Value / Tau Value: one-phase association fit, micro-O-ring absorption
[2] = Recovery over time from exposure to cell culture media without cells (GC-MS/MS); format: physicochemical
[3] = O-ring loading rate constant, larger O-rings; ref Smith et al. 2010 [24]; cited from earlier work
[4] = Smith et al. O-Rings; ref Smith et al. 2010 [24]; cited from earlier work
[5] = Table S1; ref PubChem; cited from earlier work
[6] = bovine, 24 h
[7] = Protein binding: media-dissolved fraction (FMD) and unbound fraction (FUB) in cell culture media without cells (ultracentrifugation, GC-MS/MS)
[8] = MAF (400 ng/mL each PAH), one phase decay fit of nominal recovery
[9] = MAF (400 ng/mL each PAH), one phase decay fit of nominal recovery (text: ng/mL)
[10] = O-Rings (loaded in 10 µg/mL PAH solution), one phase association fit of nominal recovery
[11] = O-Rings, one phase association fit
[12] = O-Rings, one phase association fit (desorption into media)
[13] = Solvent Extract (DMSO, 15 ng/mL each PAH), one phase decay fit of nominal recovery
[14] = Solvent Extract (DMSO, 15 ng/mL each PAH), one phase decay fit of nominal recovery (text: ng/mL)
[15] = Solvent Extract, one phase decay fit

c1ccc2c(c1)-c1cccc3cccc-2c13 [Fluoranthene]
K Value [1]: 23.4013
Plateau Value [1]: 0.3327
Y0 [1]: 0
Half-time Value [1]: 0.02962
Span Value [1]: 0.3327
Tau Value [1]: 0.04273
Y0 [2, 8]: 391.9
Plateau [2, 9]: 86.09
K ([2]; MAF, one phase decay fit): 0.2998
Span ([2]; MAF, one phase decay fit): 305.9
Tau ([2]; MAF, one phase decay fit): 3.336
Plateau [2, 10]: 0.9705
Y0 [2, 10]: -0.1202
Half-time [2, 11]: 0.594
Span [2, 11]: 1.091
Tau [2, 11]: 0.857
K [2, 12]: 1.167
Y0 [2, 13]: 14.59
Plateau [2, 14]: 2.835
K [2, 15]: 0.372
Span [2, 15]: 11.75
Tau [2, 15]: 2.688
Smith et al. 2010 K Value [3]: 1.41
K [4]: 0.93
LogKow (PubChem) [5]: 5.16

c1ccc2c(c1)Cc1ccccc1-2 [Fluorene]
K Value [1]: 26.7516
Plateau Value [1]: 0.7821
Y0 [1]: 0
Half-time Value [1]: 0.02591
Span Value [1]: 0.7821
Tau Value [1]: 0.03738
Y0 [2, 8]: 397.4
Plateau [2, 9]: 50.15
K ([2]; MAF, one phase decay fit): 0.7944
Span ([2]; MAF, one phase decay fit): 347.3
Tau ([2]; MAF, one phase decay fit): 1.259
Plateau [2, 10]: 2.925
Y0 [2, 10]: -0.4812
Half-time [2, 11]: 0.4551
Span [2, 11]: 3.406
Tau [2, 11]: 0.6566
K [2, 12]: 1.523
Y0 [2, 13]: 14.61
Plateau [2, 14]: 3.728
K [2, 15]: 0.435
Span [2, 15]: 10.88
Tau [2, 15]: 2.299
ISTD Resp. Ratio (Raw Data for FMD) ([6]; 0.375 µg/mL): 0.7014
ISTD Resp. Ratio (Raw Data for FMD) ([6]; 10 µg/mL): 0.2015
Smith et al. 2010 K Value [3]: 1.89
LogKow (PubChem) [5]: 4.18

c1ccc2c(c1)ccc1ccccc12 [Phenanthrene]
K Value [1]: 29.7306
Plateau Value [1]: 0.2434
Y0 [1]: 0
Half-time Value [1]: 0.02331
Span Value [1]: 0.2434
Tau Value [1]: 0.03364
Y0 [2, 8]: 398.5
Plateau [2, 9]: 48.89
K ([2]; MAF, one phase decay fit): 0.9181
Span ([2]; MAF, one phase decay fit): 349.6
Tau ([2]; MAF, one phase decay fit): 1.089
Plateau [2, 10]: 0.3728
Y0 [2, 10]: -0.1954
Half-time [2, 11]: 0.1645
Span [2, 11]: 0.5682
Tau [2, 11]: 0.2373
K [2, 12]: 4.214
Y0 [2, 13]: 14.6
Plateau [2, 14]: 2.716
K [2, 15]: 0.502
Span [2, 15]: 11.89
Tau [2, 15]: 1.992
Smith et al. 2010 K Value [3]: 1.66
K [4]: 1.32
LogKow (PubChem) [5]: 4.46
ISTD Resp. Ratio, stock ([7]; 0.375 ug/mL DMSO extract, 1 hr exposure block, stock reference samples STOCK_R1-R3, raw GC-MS/MS response ratio to ISTD): 7.517 and 6.997 and 7.303
ISTD Resp. Ratio (Raw Data for FMD) ([7]; 0.375 ug/mL DMSO extract, 1 hr exposure, media-dissolved fraction, replicates DMSO_FMD_R1-R4, raw GC-MS/MS response ratio to ISTD): 0.8475 and 0.7152 and 0.8128 and 0.7589
ISTD Resp. Ratio (Raw Data for FUB) ([7]; 0.375 ug/mL DMSO extract, 1 hr exposure, unbound fraction, replicates DMSO_FUB_R1-R4, raw GC-MS/MS response ratio to ISTD): 0.02919 and 0.03368 and 0.0397 and 0.002786
ISTD Resp. Ratio, stock ([7]; 0.375 ug/mL DMSO extract, 24 hr exposure block, stock samples STOCK_R1-R3, GC-MS/MS area ratio to ISTD): 9.093 and 9.139 and 8.158
ISTD Resp. Ratio (Raw Data for FMD) ([7]; 0.375 ug/mL DMSO extract, 24 hr exposure, media-dissolved fraction samples, replicates DMSO_FMD_R2-R4, GC-MS/MS area ratio to ISTD): 0.2846 and 0.2622 and 0.2363
ISTD Resp. Ratio (Raw Data for FMD) ([7]; 0.375 ug/mL DMSO extract, 24 hr exposure, media-dissolved fraction, replicate DMSO_FMD_R1, raw GC-MS/MS response ratio to ISTD): 0.2681
ISTD Resp. Ratio (Raw Data for FUB) ([7]; 0.375 ug/mL DMSO extract, 24 hr exposure, unbound fraction samples, replicates DMSO_FUB_R1-R4, GC-MS/MS area ratio to ISTD): 0.01396 and 0.01643 and 0.01239 and 0.00394
ISTD Resp. Ratio (raw data for FMD) ([7]; 10 ug/mL MAF (MAF_1H_FMD), 1 hour exposure, replicates R1-R3): 58.1761 and 43.9105 and 63.6043
ISTD Resp. Ratio (raw data for FUB) ([7]; 10 ug/mL MAF (MAF_1H_FUB), 1 hour exposure, replicates R1-R3): 0.06932 and 0.09392 and 0.08269
ISTD Resp. Ratio, Raw Data for FMD (media-dissolved fraction) ([7]; 10 ug/mL MAF, 24 hour exposure, samples MAF_24H_FMD_R1-R3 (replicates), raw GC-MS/MS analyte/ISTD response ratio): 34.5977 and 34.7241 and 34.153
ISTD Resp. Ratio, Raw Data for FUB (unbound fraction) ([7]; 10 ug/mL MAF, 24 hour exposure, samples MAF_24H_FUB_R1-R3 (replicates), raw GC-MS/MS analyte/ISTD response ratio): 0.04313 and 0.02976 and 0.1769
ISTD Resp. Ratio (Raw Data for FMD) ([7]; 10 ug/mL micro-O-Rings, 1 hour exposure, media-dissolved fraction samples, replicates ORINGS_1H_FMD_R1-R3, GC-MS/MS area ratio to ISTD): 0.01581 and 0.07741 and 0.0739
ISTD Resp. Ratio (Raw Data for FUB) ([7]; 10 ug/mL micro-O-Rings, 1 hour exposure, unbound fraction samples, replicates ORINGS_1H_FUB_R1-R3, GC-MS/MS area ratio to ISTD): 0.004514 and 0.0003336 and 0.01406
ISTD Resp. Ratio (Raw Data for FMD) ([7]; 10 ug/mL micro-O-Rings, 24 hour exposure, media-dissolved fraction samples, replicate ORINGS_24H_FMD_R1, GC-MS/MS area ratio to ISTD): 0.01817
ISTD Resp. Ratio (raw data for FMD) ([7]; O-rings (ORINGS_24H_FMD), 24 hour exposure, media without cells, GC-MS/MS analyte/ISTD response ratio, replicates R2-R3): 0.001128 and 0.05584
ISTD Resp. Ratio (raw data for FUB) ([7]; O-rings (ORINGS_24H_FUB), 24 hour exposure, media without cells, GC-MS/MS analyte/ISTD response ratio, replicates R1-R3): 0.001509 and 0.006155 and 0.006123
ISTD Resp. Ratio, stock ([7]; STOCK_10_R1-R3 (replicates) of the block 10 ug/mL MAF, 24 hr exposure, raw GC-MS/MS analyte/ISTD response ratio): 241.043 and 253.185 and 249.851
ISTD Resp. Ratio (STOCK_10) ([7]; STOCK_10 reference samples of the 10 ug/mL MAF section, replicates R1-R3): 251.693 and 253.185 and 259.309
ISTD Resp. Ratio (STOCK_10) ([7]; STOCK_10 reference samples of the O-rings section, replicates R1-R3): 105.268 and 100.389 and 100.167

Reference: PMC9866728, “Dosing Methods to Enable Cell-Based In Vitro Testing of Complex Substances: A Case Study with a PAH Mixture” (Toxics, 2022)
